Data from US11701361B2, “p110-delta inhibitors treat and prevent autoimmunity while sparing the ability to mount an immune response to exogenous immunogens” (THE REGENTS OF THE UNIVERSITY OF COLORADO, priority 2018, dated 2023).

Tested on: NOD mice
Test: antibody response of NOD mice to NP4Ova+Alum immunization on idelalisib chow
Format: in vivo, mouse
Procedure: Diet dose (DD) is calculated by multiplying the single daily dose (SD) by the body weight of a mouse (BW) and dividing that by the daily food intake (FI) [DD=(SD×BW)/FI].
For VH125.NOD experiments animals are placed on control chow immediately after weaning.
HEL conjugated to SRBCs was used to produce antigen for experiments with MD4 B cells. SRBCs (Colorado Serum Company) were stored in Alsever's solution at 4° C. SRBCs are washed 3 times in PBS prior to use. 1 ml of 50 mg/ml of the chemical crosslinker N-(3-Dimethylaminopropyl)-N-ethylcarbodiimide hydrochloride (Sigma-Aldrich) was added to 1 ml packed SRBCs and 15 ml of 5 mg/ml HEL (Sigma-Aldrich), mixed and rotated at room temperature for 45 minutes. Mice were immunized IP with 200 μl of a 5% HEL-SRBC in PBS. For NP4Ova-Alum immunizations, 10 mg/ml alum and 5 mg/ml NP4Ova were mixed to a final concentration of 250 μg/ml NP4Ova and 2.5 mg/ml alum and rotated for 3 hours at room temperature. […] Mice were then immunized with NP4Ova-alum IP in 200 μl/mouse, and responses were measured on day 7 and day 14 post-immunization.
For detection of IgM^a anti-Ars antibodies, microtiter plates were coated with 10 μg/ml Ars-BSA16 in PBS and blocked with 2 mg/ml BSA in PBS 0.05% Tween-20. For detection of IgM^a anti-HEL antibodies, microtiter plates were coated with 10 μg/ml HEL in PBS and blocked with 2 mg/ml BSA in PBS 0.05% Tween-20. For detection of total NP-specific IgM and IgG, microtiter plates were coated with 20 μg/ml NP27BSA and blocked with 2 mg/ml BSA in PBS 0.05% Tween-20. For detection of high affinity NP-specific IgM and IgG, microtiter plates were coated with 20 μg/ml NP2BSA and blocked with 2 mg/ml BSA in PBS 0.05% Tween-20. Serial dilutions of mouse serum in PBS were added and incubated overnight at 4° C. Ars/A1-derived IgM^a antibodies and MD4-derived HEL IgM^a antibodies were detected with biotinylated DS.1 anti-IgM^a (BD Pharmingen) in PBS, followed by Streptavidin-HRP (Thermo Fisher Scientific). For NP-specific IgM antibodies were detected using goat-anti-mouse IgM-HRP (SouthernBiotech). For NP-specific IgG antibodies were detected using goat-anti-mouse IgG-HRP (SouthernBiotech). Between all steps, plates were washed 3 times with PBS 0.05% Tween-20. The ELISA was developed with TMB single solution (Invitrogen) and the reaction was stopped with 1M HCl. OD was measured at 450 nm using a VERSAMax plate reader (Molecular Devices) and data analyzed with SoftMax Pro6 software.
For detection of IgM^a anti-Ars antibodies, microtiter plates were coated with 10 μg/ml Ars-BSA16 in PBS and blocked with 2 mg/ml BSA in PBS 0.05% Tween-20. For detection of IgM^a anti-HEL antibodies, microtiter plates were coated with 10 μg/ml HEL in PBS and blocked with 2 mg/ml BSA in PBS 0.05% Tween-20. For detection of total NP-specific IgM and IgG, microtiter plates were coated with 20 μg/ml NP27BSA and blocked with 2 mg/ml BSA in PBS 0.05% Tween-20. For detection of high affinity NP-specific IgM and IgG, microtiter plates were coated with 20 μg/ml NP2BSA and blocked with 2 mg/ml BSA in PBS 0.05% Tween-20. Plates were washed 3 times prior to use with PBS 0.05% Tween-20. RBC-depleted single-cell suspension of splenocytes in complete medium were added in two-fold serial dilutions starting at 1/100th of a spleen in the first well. Plates were incubated overnight at 37° C. Ars/A1-derived IgM^a antibodies and MD4-derived HEL IgM^a antibodies were detected with biotinylated DS.1 anti-IgM^a (BD Pharmingen) in PBS, followed by Streptavidin-AP (SouthernBiotech). For NP-specific IgM antibodies were detected using goat-anti-mouse IgM-AP (SouthernBiotech). For NP-specific IgG antibodies were detected using goat-anti-mouse IgG-AP (SouthernBiotech). Between all steps, plates were washed 3 times with PBS 0.05% Tween-20. The plates were developed by incubated with ELISPOT developing buffer ([…] 5-bromochloro-3-indolyl phosphate p-toluidine, […], 100 mM Tris, and 10 mM MgCl2, pH 9.5) for 1 hour. […]

[1] = 0.9375 mg/kg chow, 14 days post-immunization, vs vehicle control
[2] = 0.9375 mg/kg chow, day 14 post-immunization, vs vehicle control

CC[C@H](Nc1ncnc2nc[nH]c12)c1nc2cccc(F)c2c(=O)n1-c1ccccc1 [idelalisib, 5-fluoro-3-phenyl-2-[(1S)-1-(7H-purin-6-ylamino)propyl]-4(3H)-quinazolinone]
anti-NP IgM response in the spleen (0.9375 mg/kg chow for 4 weeks, 14 days post-immunization, vs vehicle control): not different
B cell numbers in the spleens (0.9375 mg/kg chow vs vehicle control): no difference
high affinity IgG anti-NP ASCs/spleen [1]: no observed difference
number of high-affinity IgM anti-NP ASCs/spleen [1]: equivalent
number of total anti-NP IgM antibody secreting cells (ASCs) per spleen [1]: equivalent
total IgG anti-NP ASCs/spleen [1]: no observed difference
levels of IgG anti-NP found in the periphery [2]: equivalent
levels of IgM anti-NP found in the periphery [2]: equivalent
